{
  "source": "patent US9303023B2",
  "about": "“Pyrazole and imidazole derivatives useful as orexin antagonists” (ACTELION PHARMACEUTICALS LTD., priority 2011, dated 2016)",
  "origin": "cited, not measured here",
  "key": {"[1]": {"details": "in vivo"}, "[2]": {"details": "rat fear-potentiated startle paradigm"}, "[3]": {"details": "fasted hungry rats exposed to food odors"}, "[4]": {"details": "mouse model of depression, administered chronically"}, "[5]": {"details": "rat"}, "amyloid-beta (Aβ)": {"test_system": "amyloid-beta (Aβ)", "details": "after acute sleep restriction, amyloid precursor protein transgenic mice"}, "[6]": {"details": "rat model"}},
  "data": [
    {"smiles": "COc1ccc(C[C@H]2c3cc(OC)c(OC)cc3CCN2[C@@H](C(=O)NC(C)C)c2ccccc2)cc1OC", "note": "[(R)-2-[(S)-1-(3,4-Dimethoxy-benzyl)-6,7-dimethoxy-3,4-dihydro-1H-isoquinolin-2-yl]-N-isopropyl-2-phenyl-acetamide]", "values": [
      {"measurement": "activity in animal model related to addictions", "setting": "[1]", "result": "active"},
      {"measurement": "activity in conditioned fear model", "setting": "[2]", "result": "active"}
    ]},
    {"smiles": "CNC(=O)[C@@H](c1ccccc1)N1CCc2cc(OC)c(OC)cc2[C@@H]1CCc1ccc(C(F)(F)F)cc1", "note": "[(2R)-2-{(1S)-6,7-dimethoxy-1-[2-(4-trifluoromethyl-phenyl)-ethyl]-3,4-dihydro-1H-isoquinolin-2-yl}-N-methyl-2-phenyl-acetamide]", "values": [
      {"measurement": "natural activation induced by orexin A", "setting": "[3]", "result": "attenuate the natural activation induced by orexin A"},
      {"measurement": "antidepressant-like activity", "setting": "[4]", "result": "induce antidepressant-like activity"},
      {"measurement": "alertness (active wake and locomotion)", "setting": "[5]", "result": "decrease alertness"},
      {"measurement": "time spent in both REM and NREM sleep", "setting": "[5]", "result": "dose-dependently increase"},
      {"measurement": "activity in conditioned fear model", "setting": "[2]", "result": "active"},
      {"measurement": "brain levels of amyloid-beta (Aβ) and Aβ plaque deposition", "setting": "amyloid-beta (Aβ)", "result": "decreased"},
      {"measurement": "memory function", "setting": "[6]", "result": "enhance memory function"}
    ]}
  ]
}
